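Dose response: 5 concentrations. Exposure: 48 h. Format: 96-well plates. Endpoint: linear interpolation; highest concentration if not reached. Here, GI50 denotes the concentration required for 50% inhibition of growth. TGI: concentration producing complete growth inhibition.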
Legend:
Test in all cases: inhibition of tumour cell growth, NCI panel, 48 h
[1] = test system: 786-0 renal
[2] = test system: A498 renal
[3] = test system: A549 NSCLC
[4] = test system: ACHN renal
[5] = test system: BT-549 breast
[6] = test system: CAKI-1 renal
[7] = test system: CCRF-CEM leukemia
[8] = test system: COLO 205 colon
[9] = test system: DU-145 prostate
[10] = test system: EKVX NSCLC
[11] = test system: HCC-2998 colon
[12] = test system: HCT-116 colon
[13] = test system: HCT-15 colon
[14] = test system: HL-60(TB) leukemia
[15] = test system: HOP-62 NSCLC
[16] = test system: HOP-92 NSCLC
[17] = test system: HS 578T breast
[18] = test system: HT29 colon
[19] = test system: IGROV1 ovarian
[20] = test system: K-562 leukemia
[21] = test system: KM12 colon
[22] = test system: LOX IMVI melanoma
[23] = test system: M14 melanoma
[24] = test system: MALME-3M melanoma
[25] = test system: MCF7 breast
[26] = test system: MDA-MB-231 breast
[27] = test system: MDA-MB-435
[28] = test system: MOLT-4 leukemia
[29] = test system: NCI-H226 lung
[30] = test system: NCI-H23 lung
[31] = test system: NCI-H460 lung
[32] = test system: NCI-H522 lung
[33] = test system: NCI/ADR-RES ovarian
[34] = test system: OVCAR-3 ovarian
[35] = test system: OVCAR-4 ovarian
[36] = test system: OVCAR-5 ovarian
[37] = test system: OVCAR-8 ovarian
[38] = test system: PC-3 prostate
[39] = test system: RPMI-8226 leukemia
[40] = test system: RXF 393 renal
[41] = test system: SF-268 CNS
[42] = test system: SF-295 CNS
[43] = test system: SF-539 CNS
[44] = test system: SK-MEL-2 melanoma
[45] = test system: SK-MEL-28 melanoma
[46] = test system: SK-MEL-5 melanoma
[47] = test system: SK-OV-3 ovarian
[48] = test system: SN12C renal
[49] = test system: SNB-19 CNS
[50] = test system: SNB-75 CNS
[51] = test system: SR leukemia
[52] = test system: SW-620 colon
[53] = test system: T-47D breast
[54] = test system: TK-10 renal
[55] = test system: U251 CNS
[56] = test system: UACC-257 melanoma
[57] = test system: UACC-62 melanoma
[58] = test system: UO-31 renal

COc1cc([C@@H]2c3cc4c(cc3C(O[C@@H]3O[C@@H]5CO[C@@H](c6cccs6)OC5[C@H](O)[C@H]3O)C3COC(=O)[C@@H]32)OCO4)cc(OC)c1O (stereo partly specified)
GI50 [1]: 33.6 nM
TGI [1]: 216 nM
GI50 [2]: 63.5 nM
TGI [2]: 551 nM
GI50 [3]: 20.9 nM
TGI [3]: 822 nM
GI50 [4]: 26.9 nM
TGI [4]: 711 nM
GI50 [5]: 87.8 nM
TGI [5]: 1310 nM
GI50 [6]: 99.7 nM
TGI [6]: 6980 nM
GI50 [7]: 9.41 nM
TGI [7]: 175 nM
GI50 [8]: 98.4 nM
TGI [8]: 809 nM
GI50 [9]: 45.9 nM
TGI [9]: 369 nM
GI50 [10]: 677 nM
TGI [10]: 14400 nM
GI50 [11]: 109 nM
TGI [11]: 446 nM
GI50 [12]: 72.1 nM
TGI [12]: 1280 nM
GI50 [13]: 499 nM
TGI [13]: 19400 nM
GI50 [14]: 10.4 nM
TGI [14]: 52.7 nM
GI50 [15]: 28.3 nM
TGI [15]: 137 nM
GI50 [16]: 46.1 nM
TGI [16]: 1250 nM
GI50 [17]: 241 nM
TGI [17]: 5030 nM
GI50 [18]: 123 nM
TGI [18]: 1100 nM
GI50 [19]: 228 nM
TGI [19]: 5130 nM
GI50 [20]: 111 nM
TGI [20]: 19300 nM
GI50 [21]: 118 nM
TGI [21]: 796 nM
GI50 [22]: 17 nM
TGI [22]: 911 nM
GI50 [23]: 73.2 nM
TGI [23]: 888 nM
GI50 [24]: 76.8 nM
TGI [24]: 1020 nM
GI50 [25]: 9.75 nM
TGI [25]: 16500 nM
GI50 [26]: 267 nM
TGI [26]: 3580 nM
GI50 [27]: 261 nM
TGI [27]: 2120 nM
GI50 [28]: < 5 nM
TGI [28]: 28.4 nM
GI50 [29]: 22.3 nM
TGI [29]: 149 nM
GI50 [30]: 28.8 nM
TGI [30]: 482 nM
GI50 [31]: < 5 nM
TGI [31]: 278 nM
GI50 [32]: 36.9 nM
TGI [32]: 396 nM
GI50 [33]: 5220 nM
TGI [33]: 50000 nM
GI50 [34]: 248 nM
TGI [34]: 1190 nM
GI50 [35]: 401 nM
TGI [35]: 3950 nM
GI50 [36]: 382 nM
TGI [36]: 5300 nM
GI50 [37]: 85.6 nM
TGI [37]: 1090 nM
GI50 [38]: 510 nM
TGI [38]: 32900 nM
GI50 [39]: 29.8 nM
TGI [39]: 1280 nM
GI50 [40]: 105 nM
TGI [40]: 534 nM
GI50 [41]: 69.3 nM
TGI [41]: 1540 nM
GI50 [42]: 22.4 nM
TGI [42]: 712 nM
GI50 [43]: 26.8 nM
TGI [43]: 199 nM
GI50 [44]: 207 nM
TGI [44]: 870 nM
GI50 [45]: 171 nM
TGI [45]: 953 nM
GI50 [46]: 56.7 nM
TGI [46]: 573 nM
GI50 [47]: 102 nM
TGI [47]: 810 nM
GI50 [48]: 27.2 nM
TGI [48]: 5680 nM
GI50 [49]: 27.8 nM
TGI [49]: 17000 nM
GI50 [50]: 65.9 nM
TGI [50]: 491 nM
GI50 [51]: < 5 nM
TGI [51]: 24.9 nM
GI50 [52]: 60.3 nM
TGI [52]: 1630 nM
GI50 [53]: 20.7 nM
TGI [53]: 434 nM
GI50 [54]: 118 nM
TGI [54]: 799 nM
GI50 [55]: 25.6 nM
TGI [55]: 1370 nM
GI50 [56]: 154 nM
TGI [56]: 2110 nM
GI50 [57]: 40.9 nM
TGI [57]: 1100 nM
GI50 [58]: 179 nM
TGI [58]: 1140 nM
